Assay results taken from paper PMC12186257, “Serendipitous and Systematic Chemoproteomic Discovery of MBLAC2, HINT1, and NME1‑4 Inhibitors from Histone Deacetylase-Targeting Pharmacophores” (ACS Chemical Biology, 2025).
Like-named read-outs stand apart in the source and are kept apart here. One block for each compound: values may come before it.

Key:
[1] = test system: NMEs; settings: free nonacetylated Quisinostat; prior competition experiments; cited from earlier work
[2] = biological target: T1, HDAC6 (Homo sapiens, UniProt Q9UBN7); experiment: chemoproteomic competition assay (MV4-11/SW620 lysate, iA/iC/iQ beads, MS readout); format: binding; settings: two-dose (1 μM and 10 μM) assay
T1 construct: incubated at increasing concentrations with a mixture of lysates of MV4–11 and SW620 cells; endogenous in cells; host or cells: mixed lysate of MV4-11 and SW620 cells
T1 sequence (Q9UBN7 1-1215): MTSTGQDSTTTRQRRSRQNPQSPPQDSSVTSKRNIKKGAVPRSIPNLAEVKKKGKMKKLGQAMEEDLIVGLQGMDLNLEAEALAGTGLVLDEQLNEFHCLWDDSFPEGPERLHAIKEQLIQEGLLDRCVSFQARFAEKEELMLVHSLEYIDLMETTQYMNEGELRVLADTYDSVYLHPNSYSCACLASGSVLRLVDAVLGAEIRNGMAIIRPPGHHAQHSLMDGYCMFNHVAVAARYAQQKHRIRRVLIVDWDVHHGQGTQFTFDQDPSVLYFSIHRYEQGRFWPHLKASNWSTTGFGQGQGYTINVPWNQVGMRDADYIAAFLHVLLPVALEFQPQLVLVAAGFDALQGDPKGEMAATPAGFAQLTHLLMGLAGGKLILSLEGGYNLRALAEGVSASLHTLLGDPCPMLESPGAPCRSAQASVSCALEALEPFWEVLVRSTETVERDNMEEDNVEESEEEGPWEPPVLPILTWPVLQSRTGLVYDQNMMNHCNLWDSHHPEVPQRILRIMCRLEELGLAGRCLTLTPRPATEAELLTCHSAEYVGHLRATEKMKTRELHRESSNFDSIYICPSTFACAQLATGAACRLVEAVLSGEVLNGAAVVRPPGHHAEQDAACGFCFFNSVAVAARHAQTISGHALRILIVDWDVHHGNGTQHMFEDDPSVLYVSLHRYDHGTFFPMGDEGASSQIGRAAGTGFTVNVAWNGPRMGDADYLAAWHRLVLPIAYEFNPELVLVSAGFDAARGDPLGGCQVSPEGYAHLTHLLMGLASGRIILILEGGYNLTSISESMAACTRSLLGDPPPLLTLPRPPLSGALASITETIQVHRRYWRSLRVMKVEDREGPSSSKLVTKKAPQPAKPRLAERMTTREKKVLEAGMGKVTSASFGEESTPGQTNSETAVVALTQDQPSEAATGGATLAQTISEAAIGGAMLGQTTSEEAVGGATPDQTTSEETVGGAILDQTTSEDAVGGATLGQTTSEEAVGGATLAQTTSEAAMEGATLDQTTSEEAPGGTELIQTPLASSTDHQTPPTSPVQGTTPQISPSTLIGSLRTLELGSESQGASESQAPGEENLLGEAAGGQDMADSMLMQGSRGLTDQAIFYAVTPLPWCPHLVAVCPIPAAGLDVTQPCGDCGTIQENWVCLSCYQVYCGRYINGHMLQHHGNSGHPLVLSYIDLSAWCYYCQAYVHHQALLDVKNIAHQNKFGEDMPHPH
Procedure: MBLAC2 is a metalloenzyme predicted to harbor one or two Zn^2+ ions in its active site. […] In this assay, compounds of interest are incubated at increasing concentrations with a mixture of lysates of MV4–11 and SW620 cells. The compound-treated lysates are then mixed with bead-immobilized hydroxamic acid-containing compounds iA, iC, and iQ (immobilized Quisinostat), which pull down compound-binding proteins such as HDACs, MBLAC2, ISOC1/2, ALDH2, and GATD3A (Figure a) that can be identified and quantified by mass spectrometry (MS). Proteins targeted by the library compounds in a preincubation step are prevented from being pulled down by the immobilized probes, leading to a dose-dependent reduction in MS signal. […]
(§1) Chemoproteomic competition assays
(§2) Sample preparation. […]
(§3) LC-MS/MS. The different sample types were measured with different LC-MS/MS settings. MBLAC2 2-dose competition assays were measured with the Lumos1 setup, MBLAC2 9-dose competition assays were measured with the Lumos2 setup, and kinobeads assays were measured with the Eclipse setup.
(§4) Peptides were analyzed via LC–MS/MS on a Dionex Ultimate3000 nano HPLC coupled to either one of two Orbitrap Fusion Lumos mass spectrometers, or to an Orbitrap Eclipse mass spectrometer, operated via the Thermo Scientific Xcalibur software. […]

[3] = biological target: T2, MBLAC2 (Homo sapiens, UniProt Q68D91); experiment: as above; format: binding; settings: two-dose (1 μM and 10 μM) assay
T2 construct: incubated at increasing concentrations with a mixture of lysates of MV4–11 and SW620 cells; endogenous in cells; host or cells: mixed lysate of MV4-11 and SW620 cells
T2 sequence (Q68D91 1-279): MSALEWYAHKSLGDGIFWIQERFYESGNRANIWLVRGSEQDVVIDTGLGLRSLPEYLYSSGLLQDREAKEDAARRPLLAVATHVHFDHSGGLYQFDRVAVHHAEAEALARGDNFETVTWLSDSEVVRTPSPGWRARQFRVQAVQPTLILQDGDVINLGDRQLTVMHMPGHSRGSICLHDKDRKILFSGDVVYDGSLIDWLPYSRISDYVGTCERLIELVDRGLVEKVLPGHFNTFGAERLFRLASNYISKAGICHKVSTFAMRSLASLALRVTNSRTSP

[4] = biological target: T3, ISOC1 (Homo sapiens, UniProt Q96CN7); experiment: as above; format: binding; settings: nine-dose competition assay
T3 construct: incubated at increasing concentrations with a mixture of lysates of MV4–11 and SW620 cells; endogenous in cells; host or cells: mixed lysate of MV4-11 and SW620 cells
T3 sequence (Q96CN7 1-298): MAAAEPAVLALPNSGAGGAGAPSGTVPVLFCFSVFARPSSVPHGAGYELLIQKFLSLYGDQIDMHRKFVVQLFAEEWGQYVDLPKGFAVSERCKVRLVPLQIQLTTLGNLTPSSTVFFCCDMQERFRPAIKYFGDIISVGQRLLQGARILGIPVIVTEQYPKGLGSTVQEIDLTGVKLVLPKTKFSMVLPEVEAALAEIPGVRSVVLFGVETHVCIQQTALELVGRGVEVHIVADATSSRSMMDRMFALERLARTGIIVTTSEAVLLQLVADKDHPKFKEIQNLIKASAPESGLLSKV
Procedure: (§5) MBLAC2 is a metalloenzyme predicted to harbor one or two Zn^2+ ions in its active site. […] In this assay, compounds of interest are incubated at increasing concentrations with a mixture of lysates of MV4–11 and SW620 cells. The compound-treated lysates are then mixed with bead-immobilized hydroxamic acid-containing compounds iA, iC, and iQ (immobilized Quisinostat), which pull down compound-binding proteins such as HDACs, MBLAC2, ISOC1/2, ALDH2, and GATD3A (Figure a) that can be identified and quantified by mass spectrometry (MS). Proteins targeted by the library compounds in a preincubation step are prevented from being pulled down by the immobilized probes, leading to a dose-dependent reduction in MS signal. Initially, 12 metal-chelating compounds were profiled at two concentrations (10 μM and 100 μM) (Figure S3).
as §1, §2, §3, §4
In Lumos settings, up to 12 peptide precursors were isolated in (isolation width of 1.2 Th for Lumos1 and 1.7 for Lumos2, maximum injection time of 75 ms, AGC value of 1e5 for Lumos1 and 2e5 for Lumos2), fragmented by HCD using 30% normalized collision energy (NCE) and analyzed in the Orbitrap at a resolution of 15,000 (Lumos2) or 30,000 (Lumos1). […] Peptides were isolated in the quadrupole with an isolation offset of 1.2 (isolation width of 1.2 Th, maximum injection time of 54 ms, AGC target of 200%) and fragmented by HCD with an NCE of 30% and analyzed in the Orbitrap at a resolution of 30,000. […]

[5] = test system: compound-binding proteins such as HDACs, MBLAC2, ISOC1/2, ALDH2, and GATD3A; experiment: chemoproteomic competition assay, proteome-wide target binding profile; design: species or system human; settings: dose-dependent competition
Procedure: as §5, §1
Sample preparation. For the MBLAC2 and HDAC inhibitor competition assay, the generation of affinity matrices, lysate generation, pulldown assay, and sample preparation were performed as described in detail in REF1. For the kinobeads assay, the generation of affinity matrices, lysate generation, pulldown assay, and sample preparation were performed as described in detail in REF2.
as §3
Peptides were analyzed via LC–MS/MS on a Dionex Ultimate3000 nano HPLC coupled to either one of two Orbitrap Fusion Lumos mass spectrometers, or to an Orbitrap Eclipse mass spectrometer, operated via the Thermo Scientific Xcalibur software.
In the all setups, peptides were loaded on a trap column (100 μm × 2 cm, packed in-house with Reprosil-Gold C18 ODS-3 5 μm resin, Dr. Maisch, Ammerbuch) and washed with 5 μL/min solvent A (0.1% formic acid in HPLC grade water) for 10 min. Peptides were then separated on an analytical column (75 μm × 40 cm, packed in-house with Reprosil-Gold C18 3μm resin, Dr. Maisch, Ammerbuch) using a 50 min gradient ranging from 4 to 32% solvent B (0.1% formic acid, 5% DMSO in acetonitrile) in solvent A (0.1% formic acid, 5% DMSO in HPLC grade water) at a flow rate of 300 nL/min.
The mass spectrometers were operated in data-dependent mode, automatically switching between MS1 and MS2 spectra. MS1 spectra were acquired over a mass-to-charge (m/z) range of 360–1300 m/z at a resolution of 60,000 (at m/z 200) in the Orbitrap using a maximum injection time of 50 ms and an automatic gain control (AGC) target value of 4e5.
In Lumos settings, up to 12 peptide precursors were isolated in (isolation width of 1.2 Th for Lumos1 and 1.7 for Lumos2, maximum injection time of 75 ms, AGC value of 1e5 for Lumos1 and 2e5 for Lumos2), fragmented by HCD using 30% normalized collision energy (NCE) and analyzed in the Orbitrap at a resolution of 15,000 (Lumos2) or 30,000 (Lumos1). The dynamic exclusion duration of fragmented precursor ions was set to 20 s (Lumos1) or 30 s (Lumos2). In Eclipse measurements, a cycle time of 2 s was chosen. Peptides were isolated in the quadrupole with an isolation offset of 1.2 (isolation width of 1.2 Th, maximum injection time of 54 ms, AGC target of 200%) and fragmented by […]

[6] = biological target: casein kinase 2 (CK2) complex proteins (CSNK2A1/3, CSNK2A2, CSNK2B, EIF3J); experiment: Kinobead competition assay; format: binding, human; settings: dose-dependent competition
Text: The binding of KV-24 and KV-30 to the nucleotide-binding pocket raises the question of whether these compounds also target other nucleotide-binding proteins, such as kinases. To evaluate potential off-target effects, we performed Kinobead competition assays. This chemoproteomic approach is conceptually very similar to the one used here in that broad spectrum kinase inhibitors are immobilized on beads. […] PDE1C is a cAMP/cGMP nucleotide-binding protein that features two divalent metal cation cofactors. The hydroxamic acid moiety of KV-24 might chelate these metal cofactors, supporting the hypothesis that KV-24 binds the active site of PDE1C. […]
Given that local GTP production by NME1 and NME2 is essential for fueling dynamin-driven endocytosis, we investigated the effect of KV-50-mediated NME1/2 inhibition on fluorescent transferrin (TF) uptake in cells. HeLa cells were treated with KV-50 or known endocytosis inhibitors (Pitstop-2 and Dynasore), and surface-bound and internalized fluorescent TF were quantified. […]
LC-MS/MS. The different sample types were measured with different LC-MS/MS settings. MBLAC2 2-dose competition assays were measured with the Lumos1 setup, MBLAC2 9-dose competition assays were measured with the Lumos2 setup, and kinobeads assays were measured with the Eclipse setup. […]

[7] = biological target: recombinant NME1–4; experiment: nucleoside diphosphate kinase activity assay (ATP production from ADP and GTP, Kinase-GLO); format: biochemical; settings: ADP (150 μM) and GTP (150 μM); range over all four enzymes; read-out: EC50 inhibition of NME1–4
Procedure: To evaluate whether KV-50 binding affects NME activity, we performed enzyme activity assays using recombinant NME1–4. The assay measured NME-catalyzed production of ATP from ADP (150 μM) and GTP (150 μM).
Nucleotide diphosphate kinase activity assays. The phosphotransfer activity of the NDPKs (NME1-4) was measured in a reaction mixture containing buffer A (20 mM Tris-HCl pH 8.0, 150 mM NaCl, and 1 mM MgCl2). All the samples were pipetted in replicates on a 384 well plate. One volume of the respective NDPK protein solution (NME1-4) was added from stock proteins (diluted in buffer a to a concentration of 300 pM) to the wells in four replicates. To these wells, one volume of the inhibitors (Six dilutions were prepared, starting with a 30 µM stock solution and then performing three-fold serial dilutions) was added and incubated at room temperature for 30 minutes. Then, one volume of the substrate mixture (300 μM GTP and 30 μM ADP) was added to the protein-inhibitor mixture-containing wells and incubated at room temperature for 30 minutes. Finally, three volumes of the Kinase-GLO reagent (Promega V6711) containing an ATP-dependent firefly luciferase were added to all the wells and five minutes later, the luminescence was measured using a plate reader. Eight different concentrations of ATP (0 - 10 μM) were used as standards for a calibration curve to calculate the amount of ATP produced by the different NDPKs.

[8] = test system: HeLa cells; experiment: clathrin-mediated endocytosis of fluorescently labeled transferrin; format: cell-based
Procedure: To test this hypothesis, we measured clathrin-mediated endocytosis of fluorescently labeled transferrin (TF) in the presence and absence of MBLAC2 inhibitors.
CME of transferrin and confocal microscopy analyses.For transferrin uptake experiments HeLa cells were seeded on Matrigel-coated coverslips, and incubated with 0.1 % DMSO, or with 100 µM dynasore, 20 µM KV50, 2 µM KV65, or 2 µM KV79 in media containing 10% FCS at 37°C for 20 h.

[9] = test system: SW620 cells; experiment: SW620 confluency and metabolic activity (Alamar blue assay); format: cell-based; settings: Homo sapiens, SW-620

SMILES: Cn1cc(CNCC2CCN(c3ncc(C(=O)NO)cn3)CC2)c2ccccc21 [Quisinostat]
concentration up to which no binding to NMEs [1]: > 30 µM

concentration up to which no binding to HDAC6 [2]: > 10 µM
concentration up to which no binding to MBLAC2 [3]: > 10 µM
SMILES: CC(=O)c1ccc(CN2c3ccccc3Sc3ccccc32)cc1 [MM-20]

EC50 [4]: 5.6 µM
SMILES: COc1ccc(N(C)c2nc(C)nc3ccccc23)cc1OCCCC(=O)NO [SKLB-23bb]

SMILES: Cl.O=C(NO)c1ccc(-c2nc3ccccc3c3[nH]c4ccccc4c23)cc1 [KV-50]
targets / off-targets bound [5]: bound to HINT1 and NME4
EC50 [6]: 1 to 2 µM
EC50 [7]: 2 to 5 µM
morphological changes ([8]; HeLa cells under TF assay conditions, similar in SW-620 and HEK293T): rounding and swelling of cells
ratio of internalized TF to surface-bound TF ([8]; HeLa cells, 20 µM, 20 h): reduced ratio of internalized TF to surface-bound TF
IC50 ([9]; SW620, Alamar blue, read-out: concentration decreasing metabolic activity by 50%): 3.6 µM
IC50 ([9]; read-out: concentration reducing SW620 cell confluency by 50%): 0.87 µM
